# Results taken from patent US11470793B2, “Bacterial strain having anti-fungal properties and uses thereof” (Kontzamanis Graumann Smith MacMillan Inc., priority 2019, dated 2022).
# Tested on: F. graminearum 3ADON (high toxin producing strain)
# Format: cell-based, Fusarium graminearum
structure (smiles),measurement,value
"CC(/C=C/[C@@]1(C)[C@H](C)CCC(=O)[C@@H]1C)=C\Cc1c(O)cc(C)c(C=O)c1O [cylindrol B, 4-dihydroxy-6-methyl-3-[(2E,4E)-3-methyl-5-[(1R,2R,6R)-1,2,6-trimethyl-3-oxocyclohexyl]penta-2,4-dienyl]benzaldehyde]",clearing of fungus around the well,showed a clearing of fungus around the well
